Legend:
[1] = target: Tryptophan 2,3-dioxygenase (Homo sapiens, UniProt P48775); assay: Inhibition of human TDO expressed in Escherichia coli Rosetta using tryptophan as substrate incubated for 1 hr by methylene blue based assay
[2] = target: T1, Indoleamine 2,3-dioxygenase 1 (Homo sapiens, UniProt P14902); assay: Inhibition of human IDO1 expressed in Escherichia coli Rosetta using tryptophan as substrate incubated for 1 hr by methylene blue based assay
[3] = target: T1, Indoleamine 2,3-dioxygenase 1; assay: Inhibition of IDO1 in IFNgamma-stimulated human HeLa cells using L-tryptophan as substrate measured after 48 hrs
[4] = Cmax in Sprague-Dawley rat at 3 mg/kg, po measured up to 24 hrs; assay type: ADME, organism-based; design: route oral, dose 3 mg/kg, time <=24; conditions: in vivo
[5] = Half life in Sprague-Dawley rat at 3 mg/kg, po measured up to 24 hrs; assay type: ADME, organism-based; conditions: in vivo
[6] = AUC in Beagle dog at 2 mg/kg, po measured up to 24 hrs; assay type: ADME, organism-based, Canis lupus familiaris; design: route oral, dose 2 mg/kg, time <=24; conditions: in vivo
[7] = AUC in Sprague-Dawley rat at 3 mg/kg, po measured up to 24 hrs; assay type: ADME, organism-based; design: route oral, dose 3 mg/kg, time <=24; conditions: in vivo
[8] = Cmax in Beagle dog at 2 mg/kg, po measured up to 24 hrs; assay type: ADME, organism-based, Canis lupus familiaris; design: route oral, dose 2 mg/kg, time <=24; conditions: in vivo
[9] = Half life in Beagle dog at 2 mg/kg, po measured up to 24 hrs; assay type: ADME, organism-based, Canis lupus familiaris; conditions: in vivo

Sequence of Tryptophan 2,3-dioxygenase (P48775 whole entry): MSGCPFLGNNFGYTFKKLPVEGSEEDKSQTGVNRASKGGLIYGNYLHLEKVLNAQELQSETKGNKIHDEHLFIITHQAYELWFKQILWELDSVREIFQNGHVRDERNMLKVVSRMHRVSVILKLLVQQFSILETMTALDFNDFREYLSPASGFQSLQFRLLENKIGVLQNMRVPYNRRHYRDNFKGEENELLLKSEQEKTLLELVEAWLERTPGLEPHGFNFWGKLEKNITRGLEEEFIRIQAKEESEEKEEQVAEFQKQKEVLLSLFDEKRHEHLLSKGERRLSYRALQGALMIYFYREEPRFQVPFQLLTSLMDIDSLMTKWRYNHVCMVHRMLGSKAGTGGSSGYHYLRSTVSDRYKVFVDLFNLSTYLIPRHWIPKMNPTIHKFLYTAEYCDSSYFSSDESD
T1 sequence (P14902 whole entry): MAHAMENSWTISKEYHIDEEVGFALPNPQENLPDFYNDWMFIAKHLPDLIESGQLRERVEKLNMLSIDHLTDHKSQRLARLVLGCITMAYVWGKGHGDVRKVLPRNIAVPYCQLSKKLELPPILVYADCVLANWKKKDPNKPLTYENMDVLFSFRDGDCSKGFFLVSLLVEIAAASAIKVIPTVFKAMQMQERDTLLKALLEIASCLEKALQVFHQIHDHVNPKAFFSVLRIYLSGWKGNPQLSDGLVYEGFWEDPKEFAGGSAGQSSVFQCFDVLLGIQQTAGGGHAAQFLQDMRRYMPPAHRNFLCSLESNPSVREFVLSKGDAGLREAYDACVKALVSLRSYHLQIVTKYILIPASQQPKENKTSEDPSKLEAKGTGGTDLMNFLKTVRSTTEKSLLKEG

Structure (SMILES)	IC50 [1]	IC50 [2]	IC50 [3]	Cmax [4]	half-life [5]	AUC at 24 h [6]	AUC at 24 h [7]	Cmax [8]	half-life [9]
O=C(/C(=N/O)Nc1ccc(F)c(Br)c1)C1CCN(C(=O)Nc2ccccc2)CC1	58000 nM	40 nM	54 nM						
O=C(/C(=N/O)Nc1ccc(F)c(Br)c1)C1CCN(S(=O)(=O)Nc2ccccc2)CC1	65700 nM	98 nM	150 nM						
O=C(NC[C@H]1CC[C@H](C(=O)/C(=N/O)Nc2ccc(F)c(Br)c2)CC1)c1ccccc1	81000 nM	80 nM	204 nM						
NS(=O)(=O)NC[C@H]1CC[C@H](C(=O)/C(=N/O)Nc2ccc(F)c(Br)c2)CC1	58700 nM	198 nM	21 nM						
O=C(/C(=N/O)Nc1ccc(F)c(Br)c1)C1CCN(c2ccccc2)CC1	> 100000 nM	149 nM	1020 nM						
Cn1cc(-c2ccc(NC(=O)N3CCC(C(=O)/C(=N/O)Nc4ccc(F)c(Br)c4)CC3)cc2)cn1	> 100000 nM	14 nM	15 nM	173 ng/mL	5.08 h	255 ng·h/mL	1030 ng·h/mL	140 ng/mL	1.1 h
O=C(/C(=N/O)Nc1ccc(F)c(Br)c1)C1CCCCC1	79300 nM	132 nM	63 nM						
O=C(/C(=N/O)Nc1ccc(F)c(Br)c1)c1cccs1	63100 nM	117 nM	272 nM						
O=C(/C(=N/O)Nc1ccc(F)c(Br)c1)[C@H]1CC[C@H](NS(=O)(=O)Nc2ccccc2)CC1	> 100000 nM	102 nM	291 nM						

From ChEMBL document CHEMBL4673401 (ACS Med Chem Lett, 2021)
